Measured values taken from paper PMC10145249, “Synthesis and Evaluation of ^68Ga-Labeled (2S,4S)-4-Fluoropyrrolidine-2-Carbonitrile and (4R)-Thiazolidine-4-Carbonitrile Derivatives as Novel Fibroblast Activation Protein-Targeted PET Tracers for Cancer Imaging” (Molecules, 2023).
Read-outs that look alike come from different tables or passages of the source. One block for each compound: values may come before it.

What was measured:
FAP [1] = system: FAP; parameters: method as in PMID 24617858; conditions: cited from earlier work; for IC50: (4-quinolinoyl)-glycyl-2-cyanopyrrolidine series, read-out: IC50 (FAP-inhibitory potency)
FAP [2] = system: FAP; parameters: method as in PMID 20718420; conditions: substituted 4-carboxymethylpyroglutamic acid scaffold; read-out: IC50 (FAP-inhibitory activity); cited from earlier work
[3] = LogD7.4 measurement (n-octanol / phosphate buffer pH 7.4); type: physicochemical; conditions: n-octanol / 0.1 M phosphate buffer pH 7.4, n = 3
Description: Briefly, ^68Ga-labeled tracers (1.11–1.48 MBq) were aliquoted into vials containing 3 mL of n-octanol and 3 mL of 0.1 M phosphate buffer (pH 7.4) in triplicate. Each vial was then vortexed (1 min) and centrifuged (5000 RPM, 10 min). The n-octanol and aqueous layers were sampled (1 mL) and counted using an automated gamma counter and the LogD7.4 value was calculated using the following equation: LogD7.4=log10counts in n-octanol phase/counts in buffer phase

[4] = system: HEK293T:hFAP tumor-bearing mice; assay: Ex vivo biodistribution in HEK293T:hFAP tumor xenograft mouse model
Description: (§1) Imaging and biodistribution studies were performed using immunodeficient male NRG (NOD.Cg-Rag1tm1Mom Il2rgtm1Wjl/SzJ) mice. All experiments were conducted according to the guidelines established by the Canadian Council on Animal Care and approved by Animal Ethics Committee of the University of British Columbia. The mice were subcutaneously inoculated with 7.5 × 10^6 HEK293T:hFAP cells in the left dorsal flank. When the tumors grew to 6–8 mm in diameter, the mice were used for PET/CT imaging and biodistribution studies.
For biodistribution studies, the mice were injected with ~1–2 MBq (0.01–0.04 nmol) of the ^68Ga-labeled tracer, using the exact procedures described above. At 1 h post injection, the mice were euthanized by CO2 inhalation. Blood was withdrawn by cardiac puncture and organs/tissues of interest were collected, weighed, and counted using a Perkin Elmer (Waltham, MA, USA) Wizard2 2480 automatic gamma counter. The percent injected dose per gram of tissues (%ID/g) for different tracers was calculated.
(§2) For blocking studies, HEK293T:hFAP tumor-bearing mice were co-injected with [^68Ga]Ga-SB03045 and excess nonradioactive Ga-FAPI-04 (0.5 mg/mouse) as a competitor. Imaging and biodistribution were performed at 1 h pi, similar to the process for the unblocked mice.

[5] = system: HEK293T:hFAP tumor xenografts; assay: PET/CT imaging in HEK293T:hFAP tumor-bearing mice; type: in vivo; conditions: for Visualization of tumor xenografts in PET/CT images / Excretion pathway: 1 h pi; for Excretion pathway: PET/CT
Description: as §1
PET/CT imaging experiments were carried out using a Siemens Inveon micro PET/CT scanner (Knoxville, TN, USA). Tumor-bearing mice were injected with ~4 to 6 MBq (0.02–0.13 nmol) of ^68Ga-labeled tracer through a lateral caudal tail vein under 2.5% isoflurane in oxygen anesthesia, followed by recovery and free roaming in their cage during the uptake period. A 10 min localization CT scan was acquired using 3 overlapping positions to cover each entire mouse. A CT scan was used for attenuation and scatter correction, and anatomical localization. A list mode acquisition was then performed for 15 min at 1 h pi with each mouse under isoflurane sedation. The images were reconstructed using 3D OSEM/MAP iterative methods.
as §2

[6] = parameters: method as in PMID 30072500; conditions: patients, preliminary dosimetry study; cited from earlier work
recombinant human FAP = target: T1, recombinant human FAP (Homo sapiens, UniProt Q12884); assay: In vitro fluorescence-based FAP enzymatic inhibition assay (Suc-Gly-Pro-AMC substrate); type: biochemical; conditions: for IC50: recombinant human FAP, Suc-Gly-Pro-AMC, n = 3
T1 construct: purchased Biolegend
T1 sequence (Q12884 1-760): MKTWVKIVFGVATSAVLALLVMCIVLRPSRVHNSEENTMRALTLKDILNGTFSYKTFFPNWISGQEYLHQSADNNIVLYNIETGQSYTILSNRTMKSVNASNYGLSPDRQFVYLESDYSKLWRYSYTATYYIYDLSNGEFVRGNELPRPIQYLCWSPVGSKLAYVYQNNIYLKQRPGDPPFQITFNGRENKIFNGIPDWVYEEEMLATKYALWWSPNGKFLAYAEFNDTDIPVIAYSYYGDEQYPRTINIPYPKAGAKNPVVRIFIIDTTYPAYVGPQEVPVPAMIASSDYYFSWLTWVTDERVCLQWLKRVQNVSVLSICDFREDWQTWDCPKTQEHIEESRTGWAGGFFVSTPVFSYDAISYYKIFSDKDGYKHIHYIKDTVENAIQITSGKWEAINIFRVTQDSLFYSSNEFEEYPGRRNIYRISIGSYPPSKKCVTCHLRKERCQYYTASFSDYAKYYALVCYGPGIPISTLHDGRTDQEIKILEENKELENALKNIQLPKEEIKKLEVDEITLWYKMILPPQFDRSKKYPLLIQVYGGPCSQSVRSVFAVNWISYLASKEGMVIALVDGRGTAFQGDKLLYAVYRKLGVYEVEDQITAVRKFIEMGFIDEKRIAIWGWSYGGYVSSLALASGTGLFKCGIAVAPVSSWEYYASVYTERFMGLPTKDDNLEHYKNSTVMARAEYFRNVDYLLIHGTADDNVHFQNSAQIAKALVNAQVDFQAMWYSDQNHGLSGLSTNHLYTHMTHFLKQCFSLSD
Description: The half-maximal inhibitory concentration (IC50) values of the FAP-targeted ligands were measured using an in vitro enzymatic assay. Briefly, recombinant human FAP (Biolegend, San Diego, CA, USA; 0.2 µg/mL, 50 µL) was added into a Costar clear bottom 96-well plate. PBS and varied concentrations (25 pM to 1 µM) of ^natGa-complexed ligands were added to each well (in duplicate) containing the recombinant human FAP. After being incubated for 30 min at 37 °C, Suc-Gly-Pro-AMC (Bachem, Bubendorf, Switzerland; 20 mM, 50 µL) was added to each well. The velocities of AMC release were measured kinetically at λex = 380 nm, λem = 460 nm at 60 min at 37 °C using a FlexStation 3 Multi-Mode Microplate Reader.

[7] = 0.5 mg/mouse natGa-FAPI-04, 1 h pi
[8] = HEK293T:hFAP tumor-bearing mice, 1 h pi, blocked: co-injected with natGa-FAPI-04 (0.5 mg/mouse)
[9] = HEK293T:hFAP tumor-bearing mice, 1 h pi, unblocked

- LogD7.4 [3]: −2.81 ± 0.05
- Adrenal Glands uptake [4, 8]: 0.14 ± 0.08 %ID/g
- Blood uptake [4, 8]: 0.19 ± 0.12 %ID/g
- Bone uptake [4, 8]: 0.09 ± 0.05 %ID/g
- Brain uptake [4, 8]: 0.01 ± 0.01 %ID/g
- Fat uptake [4, 8]: 0.04 ± 0.02 %ID/g
- Heart uptake [4, 8]: 0.05 ± 0.03 %ID/g
- Kidneys uptake [4, 8]: 1.03 ± 0.43 %ID/g
- Liver uptake [4, 8]: 0.13 ± 0.04 %ID/g
- Lungs uptake [4, 8]: 0.15 ± 0.09 %ID/g
- Muscle uptake [4, 8]: 0.05 ± 0.03 %ID/g
- Pancreas uptake [4, 8]: 0.04 ± 0.03 %ID/g
- Small Intestines uptake [4, 8]: 0.12 ± 0.06 %ID/g
- Spleen uptake [4, 8]: 0.10 ± 0.05 %ID/g
- Stomach uptake [4, 8]: 0.07 ± 0.06 %ID/g
- Testes uptake [4, 8]: 0.06 ± 0.03 %ID/g
- Tumor uptake [4, 8]: 0.51 %ID/g
- Tumor/Blood uptake ratio [4, 8]: 3.06 ± 1.01
- Tumor/Bone uptake ratio [4, 8]: 6.67 ± 2.72
- Tumor/Kidney uptake ratio [4, 8]: 0.50 ± 0.01
- Tumor/Muscle uptake ratio [4, 8]: 12.4 ± 5.48
- Adrenal Glands uptake [4, 9]: 0.49 ± 0.47 %ID/g
- Blood uptake [4, 9]: 1.31 ± 0.43 %ID/g
- Bone uptake [4, 9]: 3.48 ± 1.02 %ID/g
- Brain uptake [4, 9]: 0.05 ± 0.01 %ID/g
- Fat uptake [4, 9]: 0.14 ± 0.08 %ID/g
- Heart uptake [4, 9]: 0.41 ± 0.15 %ID/g
- Kidneys uptake [4, 9]: 2.23 ± 0.41 %ID/g
- Liver uptake [4, 9]: 0.47 ± 0.10 %ID/g
- Lungs uptake [4, 9]: 0.69 ± 0.20 %ID/g
- Muscle uptake [4, 9]: 0.83 ± 0.42 %ID/g
- Pancreas uptake [4, 9]: 0.52 ± 0.22 %ID/g
- Small Intestines uptake [4, 9]: 0.40 ± 0.10 %ID/g
- Spleen uptake [4, 9]: 0.49 ± 0.19 %ID/g
- Stomach uptake [4, 9]: 0.31 ± 0.04 %ID/g
- Testes uptake [4, 9]: 0.26 ± 0.08 %ID/g
- Tumor uptake [4, 9]: 11.8 ± 2.35 %ID/g
- Tumor/Blood uptake ratio [4, 9]: 9.89 ± 3.80
- Tumor/Bone uptake ratio [4, 9]: 3.58 ± 1.07
- Tumor/Kidney uptake ratio [4, 9]: 5.41 ± 1.32
- Tumor/Muscle uptake ratio [4, 9]: 17.2 ± 8.68
- Excretion pathway [5]: excreted mainly via the renal pathway
Structure (SMILES): N#C[C@@H]1C[C@H](F)CN1C(=O)CNC(=O)c1ccnc2ccc(OCCCN3CCN(C(=O)CN4CCN5CCN(CC(=O)O)CCN(CC4)CC(=O)[O][68Ga+][O]C(=O)C5)CC3)cc12 [[^68Ga]Ga-SB03045]
- Reduction in bone uptake by co-injection of excess natGa-FAPI-04 [4, 7]: ~ 97%
- Reduction of average tumor uptake by co-injection of natGa-FAPI-04 [4, 7]: ~ 96%
- Visualization of tumor xenografts in PET/CT images [5]: clearly visualized
- Tumor uptake in PET/CT on co-injection with natGa-FAPI-04 ([5]; blocked, 0.5 mg/mouse natGa-FAPI-04, 1 h pi): reduced the tumor uptake to almost background level

- LogD7.4 [3]: −1.92 ± 0.35
- Adrenal Glands uptake [4, 9]: 1.31 ± 0.60 %ID/g
- Blood uptake [4, 9]: 1.20 ± 0.30 %ID/g
- Bone uptake [4, 9]: 3.79 ± 1.36 %ID/g
- Brain uptake [4, 9]: 0.05 ± 0.01 %ID/g
- Fat uptake [4, 9]: 0.14 ± 0.06 %ID/g
- Heart uptake [4, 9]: 0.37 ± 0.08 %ID/g
- Kidneys uptake [4, 9]: 1.88 ± 0.18 %ID/g
- Liver uptake [4, 9]: 0.40 ± 0.07 %ID/g
- Lungs uptake [4, 9]: 0.80 ± 0.16 %ID/g
- Muscle uptake [4, 9]: 0.76 ± 0.20 %ID/g
- Pancreas uptake [4, 9]: 0.44 ± 0.16 %ID/g
- Small Intestines uptake [4, 9]: 0.37 ± 0.07 %ID/g
- Spleen uptake [4, 9]: 0.60 ± 0.14 %ID/g
- Stomach uptake [4, 9]: 0.16 ± 0.19 %ID/g
- Testes uptake [4, 9]: 0.28 ± 0.04 %ID/g
- Tumor/Blood uptake ratio [4, 9]: 10.5 ± 3.25
- Tumor/Bone uptake ratio [4, 9]: 3.49 ± 1.41
- Tumor/Kidney uptake ratio [4, 9]: 6.41 ± 1.52
- Tumor/Muscle uptake ratio [4, 9]: 16.8 ± 5.73
Structure (SMILES): N#C[C@@H]1CC(F)(F)CN1C(=O)CNC(=O)c1ccnc2ccc(OCCCN3CCN(C(=O)CN4CCN5CCN(CC(=O)O)CCN(CC4)CC(=O)[O][68Ga+][O]C(=O)C5)CC3)cc12 [[^68Ga]Ga-FAPI-04, reference compound]
- Drop of tumor uptake from 1 to 3 h post-injection [6]: 25%

- IC50 (recombinant human FAP): 1.59 ± 0.45 nM
Structure (SMILES): N#C[C@@H]1C[C@H](F)CN1C(=O)CNC(=O)c1ccnc2ccc(OCCCN3CCN(C(=O)CN4CCN5CCN(CC(=O)O)CCN(CC4)CC(=O)[O][Ga+][O]C(=O)C5)CC3)cc12 [^natGa-SB03045]

- FAP-binding potency, fold higher than the di-fluorinated analog (natGa-FAPI-04) (recombinant human FAP): > 5 fold
- IC50 (recombinant human FAP): 0.68 ± 0.09 nM
Structure (SMILES): N#C[C@@H]1CSCN1C(=O)CNC(=O)c1ccnc2ccc(OCCCN3CCN(C(=O)CN4CCN5CCN(CC(=O)O)CCN(CC4)CC(=O)[O][Ga+][O]C(=O)C5)CC3)cc12 [^natGa-SB03058]

- LogD7.4 [3]: −2.49 ± 0.28
- Fold lower tumor uptake than [68Ga]Ga-FAPI-04 ([4]; HEK293T:hFAP tumor-bearing mice, 1 h pi): ~ 1.5 fold
- Adrenal Glands uptake [4, 9]: 2.50 ± 1.58 %ID/g
- Blood uptake [4, 9]: 2.07 ± 0.21 %ID/g
- Bone uptake [4, 9]: 4.73 ± 0.52 %ID/g
- Brain uptake [4, 9]: 0.11 ± 0.08 %ID/g
- Fat uptake [4, 9]: 0.40 ± 0.23 %ID/g
- Heart uptake [4, 9]: 0.59 ± 0.09 %ID/g
- Kidneys uptake [4, 9]: 2.64 ± 0.28 %ID/g
- Liver uptake [4, 9]: 0.62 ± 0.19 %ID/g
- Lungs uptake [4, 9]: 1.25 ± 0.11 %ID/g
- Muscle uptake [4, 9]: 1.42 ± 0.31 %ID/g
- Pancreas uptake [4, 9]: 0.86 ± 0.16 %ID/g
- Small Intestines uptake [4, 9]: 0.61 ± 0.05 %ID/g
- Spleen uptake [4, 9]: 1.48 ± 1.01 %ID/g
- Stomach uptake [4, 9]: 0.26 ± 0.07 %ID/g
- Testes uptake [4, 9]: 0.48 ± 0.10 %ID/g
- Tumor uptake [4, 9]: 7.93 ± 1.33 %ID/g
- Tumor/Blood uptake ratio [4, 9]: 3.82 ± 0.25
- Tumor/Bone uptake ratio [4, 9]: 1.67 ± 0.13
- Tumor/Kidney uptake ratio [4, 9]: 3.01 ± 0.32
- Tumor/Muscle uptake ratio [4, 9]: 5.64 ± 0.62
- Excretion pathway [5]: excreted mainly via the renal pathway
Structure (SMILES): N#C[C@@H]1CSCN1C(=O)CNC(=O)c1ccnc2ccc(OCCCN3CCN(C(=O)CN4CCN5CCN(CC(=O)O)CCN(CC4)CC(=O)[O][68Ga+][O]C(=O)C5)CC3)cc12 [[^68Ga]Ga-SB03058]
- Visualization of tumor xenografts in PET/CT images [5]: clearly visualized

Structure (SMILES): N#CC1CC(F)CN1C(=O)CNC(=O)c1ccnc2ccccc12 [(4S)-fluoropyrrolidine]
- IC50 (FAP [1]): 3.3 nM
